O=c1[nH]cc(F)c(=O)[nH]1
Details	solubility (mole fraction)
in 1,4-dioxane, 290.2 K	0.00112
in 1,4-dioxane, 291.3 K	0.00123
in 1,4-dioxane, 300.9 K	0.00158
in 1,4-dioxane, 305.2 K	0.00176
in 1,4-dioxane, 306.4 K	0.00187
in 1,4-dioxane, 310.4 K	0.00205
in 1,4-dioxane, 313.3 K	0.00218
in 1,4-dioxane, 313.9 K	0.00225
in 1,4-dioxane, 318 K	0.00247
in 1,4-dioxane, 319.5 K	0.00258
in 1,4-dioxane, 322.8 K	0.00284
in 1,4-dioxane, 329.8 K	0.00332
in THF, 279.6 K	0.00246
in THF, 287 K	0.00273
in THF, 293.2 K	0.00289
in THF, 303.8 K	0.00328
in THF, 308.7 K	0.00349
in THF, 314.6 K	0.00367
in THF, 325.2 K	0.00418
in THF, 328.6 K	0.00454
in acetone, 282.9 K	0.00152
in acetone, 290.2 K	0.00175
in acetone, 298.4 K	0.00199
in acetone, 302.5 K	0.00219
in acetone, 305.1 K	0.00229
in acetone, 307.4 K	0.00244
in acetone, 315.2 K	0.0028
in acetone, 316.9 K	0.00299
in acetone, 322.4 K	0.00304
in acetonitrile, 290.3 K	0.00046
in acetonitrile, 294.6 K	0.00053
in acetonitrile, 299.1 K	0.00062
in acetonitrile, 300.3 K	0.00066
in acetonitrile, 306.6 K	0.00081
in acetonitrile, 307.6 K	0.00083
in acetonitrile, 316 K	0.00102
in acetonitrile, 320.2 K	0.00121
in acetonitrile, 329 K	0.00143
in acetonitrile, 332.3 K	0.00162
in ethanol, 281.1 K	0.00099
in ethanol, 286.9 K	0.00124
in ethanol, 291.2 K	0.00137
in ethanol, 297.7 K	0.00167
in ethanol, 306.2 K	0.00206
in ethanol, 309.1 K	0.00216
in ethanol, 314.8 K	0.0026
in ethanol, 315.1 K	0.00267
in ethanol, 322.8 K	0.0032
in ethanol, 323.7 K	0.00329
in ethanol, 325.6 K	0.00366
in ethanol, 329.9 K	0.00399
in ethyl acetate, 291.1 K	0.00041
in ethyl acetate, 297 K	0.00048
in ethyl acetate, 300.6 K	0.00054
in ethyl acetate, 310.8 K	0.00063
in ethyl acetate, 320.3 K	0.00077
in ethyl acetate, 330.6 K	0.00099
in isopropanol, 282.1 K	0.00085
in isopropanol, 284.6 K	0.00089
in isopropanol, 286.8 K	0.00102
in isopropanol, 294.9 K	0.00119
in isopropanol, 301.3 K	0.00147
in isopropanol, 302.4 K	0.00163
in isopropanol, 308 K	0.00188
in isopropanol, 311.6 K	0.00217
in isopropanol, 316.2 K	0.00237
in isopropanol, 318 K	0.00258
in isopropanol, 323 K	0.00301
in isopropanol, 327.5 K	0.00346
in isopropanol, 330 K	0.00381
in methanol, 280 K	0.00165
in methanol, 287.7 K	0.00216
in methanol, 295.8 K	0.00289
in methanol, 306.8 K	0.00379
in methanol, 318.4 K	0.00502
in methanol, 326 K	0.00581
in methanol, 328.8 K	0.00661
in n-butanol, 280.1 K	0.00058
in n-butanol, 283 K	0.00059
in n-butanol, 287.8 K	0.00086
in n-butanol, 299.5 K	0.00103
in n-butanol, 303.4 K	0.00121
in n-butanol, 306.3 K	0.00141
in n-butanol, 314.8 K	0.00182
in n-butanol, 325.8 K	0.0026
in n-butanol, 327 K	0.00267
in n-butanol, 331.5 K	0.00313
in n-propanol, 280.8 K	0.00082
in n-propanol, 282.4 K	0.00089
in n-propanol, 291.2 K	0.00098
in n-propanol, 294.5 K	0.00108
in n-propanol, 298.4 K	0.00121
in n-propanol, 302.2 K	0.00123
in n-propanol, 308.6 K	0.00149
in n-propanol, 313 K	0.00172
in n-propanol, 315.1 K	0.00179
in n-propanol, 318.3 K	0.00208
in n-propanol, 322.3 K	0.00224
in n-propanol, 324.3 K	0.00245
in n-propanol, 326.2 K	0.00263
in water, 280.1 K	0.00091
in water, 282.5 K	0.00093
in water, 290.8 K	0.00124
in water, 294.5 K	0.00147
in water, 304.4 K	0.0021
in water, 312.1 K	0.00288
in water, 317.5 K	0.00337
in water, 323 K	0.00402

Reference: BigSolDB 2.1
